{"source": "patent US9155723B2", "about": "“Anti-CXCR4 as a sensitizer to cancer therapeutics” (THE GENERAL HOSPITAL CORPORATION, priority 2010, dated 2015)", "key": {"[1]": {"test_system": "E0771 mammary tumors", "protocol": "(§1) AMD3100 was delivered by s.c. Alzet pumps containing 10 mg/mL AMD3100 in PBS at a dose of 60 μg/day, and pumps with PBS only were used as a control. The pumps were replaced every 2 wk.\n(§2) Primary tumor tissues were fixed and frozen. Sections were stained with rat antibodies against mouse CD11b, MECA 32, Gr-1 (BD Pharmingen), and F4/80 (Serotec). Cy3- or FITC-conjugated secondary antibodies were used for the detection of signals by confocal microscopy. Slides were counterstained with DAPI for nuclear staining. The number of cells was quantified by measuring the area occupied by immunostained mononuclear cells normalized by the area of DAPI-stained nuclei (i.e., unitless). Phopho-p38 MAPK level was measured by Western blotting.\n(§3) Primary tumor tissues were fixed in 4% paraformaldehyde at 4° C. for 2 h, dehydrated in 30% sucrose overnight, and embedded in optimal cutting temperature (OCT) compound in frozen samples for immunofluorescence histological analyses."}, "[2]": {"test_system": "TRAMP-C1 prostate tumors", "protocol": "as §1, §2, §3"}, "[3]": {"test_system": "TRAMP-C1 prostate tumors", "protocol": "TRAMP-C1 tumors were implanted s.c. in male C57BL/6 mice, and E0771 tumors were implanted s.c. in female C57BL/6 mice after BMT and recovery and/or after BMT and Mx-Cre recombination (n=5-6 mice) (SI Materials and Methods). […] Lung tissue was isolated from mice 2-4 wk after removal of the primary tumor.\nas §1\nMice ranging from 8 to 22 wk old [due to prior bone marrow transplantation (BMT) and/or recombination procedures] were used. […] All experiments were performed at least twice. Metastatic tumor volume was measure by the formula: V=small diameter×long diameter×number of microscopic metastases.", "remark": "listed apart in the source"}, "[4]": {"test_system": "MCa8 mouse mammary carcinomas", "conditions": "AMD3100 osmotic pumps alone for 2 weeks, no irradiation; MCa8 tumors", "excerpt": "(§4) 54A human lung tumors were xenografted in male athymic NCr/Sed nude (nu/nu) mice, and MCa8 mouse mammary carcinomas were implanted in female syngeneic FVB mice (both subcutaneously in the hind limb; refs. 3, 11). To detect specific BMDC populations in tumors (i.e., Tie2^+CD11b^− EPCs and Tie2^+CD11b^+ TEMs), irradiated wild-type FVB mice were irradiated with 9 Gy of whole-body irradiation (WBI) followed by restorative bone marrow transplantation (BMT) from Tie2-GFP-FVB donors to create chimeric wild-type/Tie2-GFP-BMT mice (3). MCa8 tumors were implanted in these mice 6 weeks post-BMT.\n(§5) Tumor size was measured with a caliper at least thrice a week. When a tumor reached 5.5 mm in mean diameter, the mouse was randomized to a treatment group. Tumors were γ-irradiated using the same dose delivered either locally alone or locally plus a sublethal WBI dose of 6 Gy. […] Unsorted BMDCs (from femurs and tibias of one tumor- and treatment-naïve donor to two recipients) or fluorescence-activated cell-sorted Sca1^−CD11b^+ (150,000-200,000 cells) or Sca1^+CD11b^+ (25,000-50,000) BMDCs (from one donor to one recipient) were i.v. infused in mice receiving LI plus WBI. […] Therapeutic efficacy was measured as the time taken for tumors to grow to 7.5 mm in diameter (i.e., 2.5-fold increase compared with the pretreatment volume)."}, "[5]": {"test_system": "54A human lung tumors", "conditions": "AMD3100 osmotic pumps alone for 2 weeks, no irradiation; 54A tumors", "excerpt": "as §4, §5"}, "[6]": {"test_system": "CD11b+ myeloid BMDCs", "assay": "In vitro migration assay (Boyden chamber), CD11b+ myeloid BMDCs", "format": "cell-based, mouse", "protocol": "(§6) Bone marrow cells were collected in heparin-mixed PBS. The cellular filtrate was washed and a layer containing mononuclear BM cells was separated using Histopaque-1083 (Sigma). For the migration assay, BM cells were separated by CD11b, F4/80, or Gr-1 magnetic microbeads (MACS-beads; Miltenyi Biotech) from VEGFR1TK+/+ and VEGFR1TK−/− mice as per manufacturer's protocol. These cells were incubated with recombinant proteins for migration assays\n(§7) The migration of mononuclear CD11b+ BMDCs (2×10^6 cells per mL), F4/80+ BMDCs (8×10^5 cells per mL), and Gr-1+ BMDCs (8×10^5 cells per mL) was evaluated using a chemotaxis Boyden chamber (Neuroprobe). The upper and lower wells were separated by a […] pore size polyvinylpyrrolidone-free polycarbonate filter (Nucreopore; Costar). […] A 50-μl aliquot of the cell suspension was seeded in the upper wells and incubated for 3 h at 37° C. with 5% CO2. The number of cells that migrated through the membrane was counted.\nTo reveal the mechanism of action of VEGFR1 and CXCR4 in myeloid BMDCs, bone marrow cells were harvested from C57BL/6 and VEGFR1 TK−/− mice and purified mononuclear myeloid BMDCs using magnetic separation for CD11b+ cells."}, "[7]": {"test_system": "Gr-1+ BMDCs", "conditions": "in vitro", "protocol": "as §6, §7"}, "[8]": {"test_system": "CXCL12", "conditions": "cited from earlier work"}}, "note": "Entries after “also recorded” stand apart in the source; their conditions may differ. Read-outs that look alike come from different tables or passages of the source."}
{"molecule": "c1cc(CN2CCCNCCNCCCNCC2)ccc1CN1CCCNCCNCCCNCC1", "note": "[AMD3100, 1,1′-[1,4-phenylene-bis(methylene)]-bis-1,4,8,11-tetraazacyclotetradecane]", "values": [{"measurement": "TAM infiltration", "setting": "[1]; AMD3100 alone", "result": "did not affect the TAM infiltration"}, {"measurement": "number of total myeloid BMDCs in tumor", "setting": "[1]; AMD3100 alone", "result": "decreased the number of total myeloid BMDCs"}, {"measurement": "microvascular density (MVD)", "setting": "[1]; AMD3100 alone, prevention setting", "result": "decreased MVD"}, {"measurement": "Gr-1+ myeloid BMDC infiltration", "setting": "[1]; irrespective of VEGFR1-TK status in BMDCs", "result": "decreased Gr-1+ myeloid BMDCs; also recorded: decreases Gr-1^+ BMDC infiltration"}, {"measurement": "TAM infiltration", "setting": "[2]; AMD3100 alone, TRAMP-C1", "result": "did not affect the TAM infiltration"}, {"measurement": "number of total myeloid BMDCs in tumor", "setting": "[2]; AMD3100 alone, TRAMP-C1", "result": "not in TRAMP-C1 tumors"}, {"measurement": "Gr-1+ myeloid BMDC infiltration", "setting": "[2]; irrespective of VEGFR1-TK status in BMDCs, TRAMP-C1", "result": "decreased Gr-1+ myeloid BMDCs; also recorded: decreases Gr-1^+ BMDC infiltration"}, {"measurement": "number of Gr-1+ BMDCs during early tumor growth", "setting": "[2]; small (4-mm) tumors, preventive setting, TRAMP-C1 model, 8-wk-old mice", "result": "significantly decreased the number of Gr-1+ BMDCs; also recorded: significantly reduces Gr-1^+ myeloid BMDC infiltration"}, {"measurement": "lung metastatic burden after primary tumor resection", "setting": "[3]; BMT-VEGFR1^TK−/− mice, TRAMP-C1", "result": "significantly reduced metastatic burden"}, {"measurement": "growth of established tumors", "setting": "[3]; intervention setting, growth from 4 mm to ~1 cm, established TRAMP-C1", "result": "less substantial growth delay"}, {"measurement": "tumor growth", "setting": "[4]", "result": "did not affect tumor growth"}, {"measurement": "tumor growth", "setting": "[5]", "result": "did not affect tumor growth"}, {"measurement": "rCXCL12-induced migration of WT myeloid BMDCs", "setting": "[6]; 1 μg/mL of AMD3100, rCXCL12 100 ng/mL, transwell assay", "result": "reversed"}, {"measurement": "rCXCL12-induced migration of Gr-1+ BMDCs", "setting": "[7]", "result": "reversed"}]}
{"molecule": "C[S+]([O-])c1ccc(-c2nc(-c3ccncc3)c(-c3ccc(F)cc3)[nH]2)cc1", "note": "(centres unmarked) [SB203580]", "values": [{"measurement": "migration of myeloid BMDCs", "setting": "[6]; SB203580 1 μM, rVEGF or rCXCL12, irrespective of the chemotactic stimulus", "result": "significantly reduced the migration of myeloid BMDCs; also recorded: decreased migration of myeloid BMDCs"}]}
{"molecule": "COc1cc2c(Oc3ccc4[nH]c(C)cc4c3F)ncnc2cc1OCCCN1CCCC1", "note": "[cediranib]", "values": [{"measurement": "circulating CXCL12", "setting": "[8]; recurrent GBM, P < 0.001", "result": "therapy increases"}]}
{"molecule": "CNC(=O)c1cc(Oc2ccc(NC(=O)Nc3ccc(Cl)c(C(F)(F)F)c3)cc2)ccn1", "note": "[sorafenib]", "values": [{"measurement": "circulating CXCL12", "setting": "[8]; advanced sarcoma, P < 0.01", "result": "therapy increases"}]}
